PubChem BioAssay (NCI)
“And” between values parts separate entries of the source, which are not always exact repeats. Equal entries are not always repeated.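 Five compound concentrations were applied to cells in 96-well plates for 48 hours; endpoints were derived by simple linear interpolation of the resulting dose-response curve. Here, GI50 denotes the concentration required for 50% inhibition of growth. Definition used: TGI = concentration required for complete inhibition of growth.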

Legend:
Experiment in all cases: inhibition of tumour cell growth, NCI panel, 48 h
786-0 renal = system: 786-0 renal
MALME-3M melanoma = system: MALME-3M melanoma
HS 578T breast = system: HS 578T breast
SR leukemia = system: SR leukemia
UACC-257 melanoma = system: UACC-257 melanoma
A549 NSCLC = system: A549 NSCLC
SNB-75 CNS = system: SNB-75 CNS
RXF 393 renal = system: RXF 393 renal
OVCAR-8 ovarian = system: OVCAR-8 ovarian
SK-OV-3 ovarian = system: SK-OV-3 ovarian

COC(=O)CCCC(=O)O
TGI (786-0 renal): > 100 µM
TGI (MALME-3M melanoma): > 100 µM
TGI (HS 578T breast): > 100 µM
TGI (SR leukemia): > 100 µM
TGI (UACC-257 melanoma): > 100 µM
TGI (A549 NSCLC): > 100 µM
TGI (SNB-75 CNS): > 100 µM
TGI (RXF 393 renal): > 100 µM
TGI (OVCAR-8 ovarian): > 100 µM

NC(=O)c1ccc2nc(-c3ccc(Oc4ccc(Cl)cc4)cc3)[nH]c2c1
GI50 (SK-OV-3 ovarian): 17.7 µM and 23.1 µM
TGI (SK-OV-3 ovarian): 75 µM and 48.2 µM
GI50 (786-0 renal): 48 µM and 16.1 µM
TGI (786-0 renal): 75 µM and 39.4 µM
GI50 (MALME-3M melanoma): 32.4 µM and 18.2 µM
TGI (MALME-3M melanoma): 75 µM and 33.6 µM
GI50 (HS 578T breast): 24.2 µM and 16.5 µM
TGI (HS 578T breast): 75 µM and 42.6 µM
GI50 (SR leukemia): 17.9 µM and 20.6 µM
TGI (SR leukemia): 61.5 µM and 57.3 µM
GI50 (UACC-257 melanoma): 66.7 µM and 18.4 µM
TGI (UACC-257 melanoma): 75 µM and 33.5 µM
GI50 (A549 NSCLC): 49.8 µM and 10.4 µM
TGI (A549 NSCLC): 75 µM and 28 µM
GI50 (SNB-75 CNS): 37 µM and 18.3 µM
TGI (SNB-75 CNS): 75 µM and 38.5 µM
GI50 (RXF 393 renal): 48.9 µM and 14.9 µM
TGI (RXF 393 renal): 75 µM and 30.2 µM
GI50 (OVCAR-8 ovarian): 58 µM and 12.9 µM
TGI (OVCAR-8 ovarian): 75 µM and 34.4 µM

COc1ccc(-c2nc3ccccn3c2/C=C/C(=O)c2cc(OC)c(OC)c(OC)c2)cc1
GI50 (SK-OV-3 ovarian): 14.8 µM
TGI (SK-OV-3 ovarian): > 100 µM
GI50 (786-0 renal): 3.9 µM
TGI (786-0 renal): > 100 µM
GI50 (HS 578T breast): 2.89 µM
TGI (HS 578T breast): 51.7 µM
GI50 (SR leukemia): 3.71 µM
TGI (SR leukemia): > 100 µM
GI50 (UACC-257 melanoma): 5.85 µM
TGI (UACC-257 melanoma): > 100 µM
GI50 (A549 NSCLC): 7.96 µM
TGI (A549 NSCLC): > 100 µM
GI50 (SNB-75 CNS): 5.49 µM
TGI (SNB-75 CNS): 54.5 µM
GI50 (RXF 393 renal): 2.94 µM
TGI (RXF 393 renal): > 100 µM
GI50 (OVCAR-8 ovarian): 3.92 µM
TGI (OVCAR-8 ovarian): > 100 µM

O=C(Nc1ccccc1)NS(=O)(=O)c1ccc(-n2nc3c(c2-c2ccc(Cl)cc2)Cc2ccccc2-3)cc1
GI50 (SK-OV-3 ovarian): 53.9 µM
TGI (SK-OV-3 ovarian): > 100 µM
GI50 (786-0 renal): 27.5 µM
TGI (786-0 renal): > 100 µM
GI50 (HS 578T breast): 19.6 µM
TGI (HS 578T breast): 82.3 µM
GI50 (SR leukemia): 2.82 µM
TGI (SR leukemia): 7.18 µM
GI50 (UACC-257 melanoma): 37.1 µM
TGI (UACC-257 melanoma): > 100 µM
GI50 (A549 NSCLC): 24.5 µM
TGI (A549 NSCLC): > 100 µM
GI50 (SNB-75 CNS): 48.7 µM
TGI (SNB-75 CNS): > 100 µM
GI50 (RXF 393 renal): 22.2 µM
TGI (RXF 393 renal): 85.7 µM
GI50 (OVCAR-8 ovarian): 24.7 µM
TGI (OVCAR-8 ovarian): 86.8 µM

CCCCS(=O)(=O)CCC(N)C(=O)O (stereo unspecified)
TGI (SK-OV-3 ovarian): > 100 µM
TGI (786-0 renal): > 100 µM
TGI (MALME-3M melanoma): > 100 µM
TGI (HS 578T breast): > 100 µM
TGI (SR leukemia): > 100 µM
TGI (UACC-257 melanoma): > 100 µM
TGI (A549 NSCLC): > 100 µM
TGI (SNB-75 CNS): > 100 µM
TGI (RXF 393 renal): > 100 µM
TGI (OVCAR-8 ovarian): > 100 µM

COc1cc(O)c(C(=O)/C=C/c2ccc(O)cc2)c(O)c1[C@@H]1C[C@H](CCc2ccc(O)cc2)O[C@H](c2ccc(O)cc2)C1
GI50 (SK-OV-3 ovarian): 2.82 µM
TGI (SK-OV-3 ovarian): 7.65 µM
GI50 (786-0 renal): 2.47 µM
TGI (786-0 renal): 7.1 µM
GI50 (MALME-3M melanoma): 5.46 µM
TGI (MALME-3M melanoma): 28.7 µM
GI50 (HS 578T breast): 3.34 µM
TGI (HS 578T breast): 16.6 µM
GI50 (SR leukemia): 2.23 µM
TGI (SR leukemia): 4.65 µM
GI50 (UACC-257 melanoma): 5.47 µM
TGI (UACC-257 melanoma): 20.2 µM
GI50 (SNB-75 CNS): 2.59 µM
TGI (SNB-75 CNS): 7.44 µM
GI50 (RXF 393 renal): 3.1 µM
TGI (RXF 393 renal): 9.07 µM
GI50 (OVCAR-8 ovarian): 3.77 µM
TGI (OVCAR-8 ovarian): 29.1 µM

Fc1ccc(Nc2nc3nonc3nc2Nc2ccc(F)cc2)cc1
GI50 (SK-OV-3 ovarian): 0.244 µM
TGI (SK-OV-3 ovarian): 0.852 µM
GI50 (786-0 renal): 0.509 µM
TGI (786-0 renal): 8.48 µM
GI50 (MALME-3M melanoma): 0.277 µM
TGI (MALME-3M melanoma): 1.11 µM
GI50 (HS 578T breast): 0.37 µM
TGI (HS 578T breast): 4.03 µM
GI50 (SR leukemia): 0.447 µM
TGI (SR leukemia): 2.75 µM
GI50 (UACC-257 melanoma): 0.401 µM
TGI (UACC-257 melanoma): 3.16 µM
GI50 (A549 NSCLC): 0.354 µM
TGI (A549 NSCLC): 11.4 µM
GI50 (SNB-75 CNS): 0.399 µM
TGI (SNB-75 CNS): 3.38 µM
GI50 (OVCAR-8 ovarian): 0.402 µM
TGI (OVCAR-8 ovarian): 15.4 µM
